# Measured values taken from patent US20230331679A1, “NAPHTHALENE MONOIMIDE COMPOUNDS AND METHODS THEREOF” (JAWAHARLAL NEHRU CENTRE FOR ADVANCED SCIENTIFIC RESEARCH, priority 2020, published 2023).
# How the values were obtained:
# PC12 cells = experiment: Rescue of PC12 cells from Aβ42 toxicity (MTT cell viability assay); conditions: for enhancement in the viability of cells from Aβ toxicity: versus Aβ42 alone (54%); for viability at 40 µM: Rattus norvegicus, PC-12, 24 h, read-out: cell viability, PC12 cells, Aβ42 20 µM + compound 40 µM, 24 h
# Description: A 96-well plate was used to culture the cells (15,000 per well) with RPMI media (10% fetal bovine serum (FBS), 5% horse serum (HS,), and 1% pen-strep (PS)) at 37° C. temperature in a 5% CO2 atmosphere. Then the media was exchanged with low serum (2% FBS) media and monomeric Aβ42 was added in the absence and presence of NMI compounds and incubated for 24 h.
# The structure-activity relationship (SAR) of NMI compounds towards rescuing PC12 cells from Aβ toxicity was investigated. […] Each experiment was repeated three times (n = 3), and error bars represent the standard deviation (SD).
# An Alzheimer’s disease-like environment was mimicked by exposing the cultured PC12 cells to 20 µM of Aβ42 fibrils, which formed cytotoxic aggregation species in the growth media.
# Aβ42 = biological target: T1, Aβ42 (Homo sapiens, UniProt P05067); experiment: ThT binding assay, inhibition of Aβ42 fibrillar assembly; type: biochemical; conditions: for inhibitory effect on Aβ42 aggregation (ThT NFI at 482 nm): 1:1 molar ratio, 10 µM Aβ42, 10 µM inhibitor, 72 h; for decrease in the formation of Aβ aggregates: Aβ42/inhibitor 1:1, Aβ42 10 µM; for decrease in the formation of Aβ aggregates / Aβ aggregation decreased to: third day of incubation
# T1 construct: commercially available β-amyloid peptide (1-42), human; purchased marck (so in the source) PP69-.025 mg
# T1 sequence (P05067 672-713 limits assumed): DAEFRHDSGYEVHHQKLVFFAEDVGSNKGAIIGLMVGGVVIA
# Description: (§1) Monomeric form of Aβ42 peptide was prepared by dissolving 0.25 mg of commercially available β-amyloid peptide (1-42), human (cat: PP69-.025 mg), marck peptide in 250 µL of hexafluoro-2-propanol (HFIP) solvent to obtain a Aβ42 solution. This solution was incubated at room temperature for 1 hour, further to which the HFIP solvent was removed by nitrogen gas flow to obtain the monomeric Aβ42 peptide. To prepare a fibrillar sample of Aβ42 peptide, 0.025 mg of Aβ42 peptide was dissolved in […] of PBS buffer (pH = 7.4; contains 2% of DMSO or 100 mM NaOH) to obtain a monomeric Aβ42 solution and the peptide concentration in this solution was calculated through UV-Visible absorbance studies (ε = 1450 cm^-1 M^-1). The Aβ42 monomeric solution was incubated for 5 days in PBS buffer (pH = 7.4) to allow for the full phase formation of Aβ42 fibrils. The presence of Aβ42 fibrils was further confirmed by ThT assay.
# Initially, the ability of the prepared NMI compounds, TGR63-68 to inhibit Aβ42 fibrillar assembly at 1:1 molar ratio with Aβ42 fibrils was evaluated using thioflavin (ThT) binding assay. 10 µM of Aβ42 fibrils in the absence (Ctrl) and the presence of 10 µM of inhibitors individually were incubated for 72 h. A normalized data for fluorescence intensity (NFI) of ThT at 482 nm (λex = 442 nm) was measured as represented in FIG. 1(a).
# (§2) The ability of NMI compounds (TGR63, TGR64 and TGR65) to prevent Aβ42 fibrillar assembly (inhibition) and to break down the preformed fibrils (dissolution) was evaluated using thioflavin (ThT) binding assay. Aβ42 fibrils at a concentration of 10 µM and its aggregates, were used to study the effect of NMI compounds (TGR63, TGR64 and TGR65) at varying concentrations on both inhibition and dissolution assays. For the inhibition assay, all the NMI compounds (TGR63, TGR64 and TGR65) were added independently to Aβ peptide (10 µM) at 0 h of the experiment, whereas for the aggregates dissolution assay they were added to Aβ42 fibrillar aggregates grown for 2 days. Upon incubating for a predetermined period, Aβ42 inhibitor samples were analyzed using ThT by measuring the fluorescence change at 485 nm as presented in FIG. 1(b) and FIG. 1(c), wherein the error bars represent the standard deviation (SD) of the fluorescence measurement. Fluorescence values were normalized to maximal fluorescence intensity at 485 nm compared to that of the control (Aβ42 with no inhibitor). Experiments were performed at various stoichiometric ratios (Aβ42/inhibitor) of 1:1, 1:2, and 1:5 with a fixed concentration of Aβ42 at 10 µM. Each experiment was repeated three times (n = 3). […] TGR 63 recorded 80% dissolution efficiency while TGR 64 and TGR 65 recorded 75% and 78% dissolution efficiency respectively, for the stoichiometric ratio of 1:5.
# [1] = biological target: T2, Aβ42 fibrillar aggregates (Homo sapiens, UniProt P05067); experiment: ThT binding assay, dissolution of preformed Aβ42 fibrils; type: biochemical; conditions: after sixth day of incubation
# T2 construct: commercially available β-amyloid peptide (1-42), human; purchased marck (so in the source) PP69-.025 mg
# T2 sequence (P05067 672-713 limits assumed): as above
# Description: as §1, §2
# α-Syn = α-Syn (Homo sapiens, UniProt P37840); experiment: ThT binding assay, α-Syn aggregation inhibition; type: biochemical
# From the text: Parkinson’s disease (PD) is a neuronal disorder, mainly affects the motor system. α-Syn is a presynaptic neuronal protein that is linked neuropathologically to PD plays a vital role in the pathogenesis in a number of ways. Self-aggregation of α-Syn to form fibrillar aggregates and these toxic species mediate disruption of cellular homeostasis and cause neuronal death. These toxic aggregates affect various intracellular targets, especially synaptic function. In this context, NMI compounds of the present disclosure were used to study the possible modulation of α-Syn aggregation. The effect of NMI compounds (TGR63 and TGR64) on α-syn (100 µM) aggregation inhibition was studied through ThT binding assay. Experiments were performed at stoichiometric ratios (α-Syn:inhibitor) of 1:1, 1:2, and 1:5 with the fixed concentration of α-Syn at 100 µM.
smiles,measurement,setting,value
"CN(C)c1ccc2c3c(cccc13)C(=O)N(CC[N+](C)(C)C)C2=O [TGR67, 2-(6-(dimethylamino)-1,3-dioxo-1H-benzo[de]isoquinolin-2(3H)-yl)-N,N,N-trimethylethan-1-aminium]",enhancement in the viability of cells from Aβ toxicity,PC12 cells; PC12 cells,~22%
same,inhibitory effect on Aβ42 aggregation (ThT NFI at 482 nm),Aβ42,~7%
"CN(C)c1ccc(C#Cc2ccc3c4c(cccc24)C(=O)N(CCOCCO)C3=O)cc1 [TGR65, 6-((4-(dimethylamino)phenyl)ethynyl)-2-(2-(2-hydroxyethoxy)ethyl)-1H-benzo[de]isoquinoline-1,3(2H)-dione]",dissolution efficiency,"[1]; Aβ42/inhibitor 1:1, Aβ42 10 µM",~ 35%
same,dissolution efficiency,"[1]; Aβ42/inhibitor 1:2, Aβ42 10 µM",~ 50%
same,dissolution efficiency,"[1]; Aβ42/inhibitor 1:5, Aβ42 10 µM",78%
same,viability at 40 µM,"PC12 cells; Aβ42 alone 54%, untreated 100%",62%
same,inhibitory effect on Aβ42 aggregation (ThT NFI at 482 nm),Aβ42,~25%
same,decrease in the formation of Aβ aggregates,Aβ42,~ 50%
same,Aβ aggregation decreased to,"Aβ42; Aβ42/inhibitor 1:2, Aβ42 10 µM",75%
same,Aβ aggregation decreased to,"Aβ42; Aβ42/inhibitor 1:5, Aβ42 10 µM",90%
"C[N+](C)(C)CCN1C(=O)c2cccc3cccc(c23)C1=O [TGR66, 2-(1,3-dioxo-1H-benzo[de]isoquinolin-2(3H)-yl)-N,N,N-trimethylethan-1-aminium]",enhancement in the viability of cells from Aβ toxicity,PC12 cells; PC12 cells,~ 26%
same,inhibitory effect on Aβ42 aggregation (ThT NFI at 482 nm),Aβ42,~ 10%
"C[N+](C)(C)CCN1C(=O)c2cccc3c(C#Cc4ccccc4)ccc(c23)C1=O [TGR68, 2-(1,3-dioxo-6-(phenylethynyl)-1H-benzo[de]isoquinolin-2(3H)-yl)-N,N,N-trimethylethan-1-aminium]",enhancement in the viability of cells from Aβ toxicity,PC12 cells; PC12 cells,~8%
same,inhibitory effect on Aβ42 aggregation (ThT NFI at 482 nm),Aβ42,~5%
"CN(C)c1ccc(C#Cc2ccc3c4c(cccc24)C(=O)N(CCN)C3=O)cc1 [TGR64, 2-(2-aminoethyl)-6-((4-(dimethylamino)phenyl)ethynyl)-1H-benzo[de]isoquinoline-1,3(2H)-dione]",dissolution efficiency,"[1]; Aβ42/inhibitor 1:1, Aβ42 10 µM",~ 35%
same,dissolution efficiency,"[1]; Aβ42/inhibitor 1:2, Aβ42 10 µM",~ 50%
same,dissolution efficiency,"[1]; Aβ42/inhibitor 1:5, Aβ42 10 µM",75%
same,cell viability,"PC12 cells; PC12 cells, Aβ42 20 µM + compound 40 µM, 24 h, Aβ42 alone 54%, untreated 100%",76%
same,viability at 40 µM,"PC12 cells; Aβ42 alone 54%, untreated 100%",78%
same,decrease in the formation of α-Syn aggregates,"α-Syn; α-Syn:inhibitor 1:1, α-Syn 100 µM",~ 54%
same,α-Syn aggregation decreased to,"α-Syn; α-Syn:inhibitor 1:2, α-Syn 100 µM",72%
same,α-Syn aggregation decreased to,"α-Syn; α-Syn:inhibitor 1:5, α-Syn 100 µM",77%
same,inhibitory effect on Aβ42 aggregation (ThT NFI at 482 nm),Aβ42,~38%
same,decrease in the formation of Aβ aggregates,Aβ42,~ 50%
same,Aβ aggregation decreased to,"Aβ42; Aβ42/inhibitor 1:2, Aβ42 10 µM",75%
same,Aβ aggregation decreased to,"Aβ42; Aβ42/inhibitor 1:5, Aβ42 10 µM",90%
